Experimental data taken from ChEMBL document CHEMBL3044823, “Design, synthesis, and evaluation of anti-inflammatory and ulcerogenicity of novel pyridazinone derivatives” (Med Chem Res, 2012).

Tests used:
[1] = system: Rattus norvegicus; test: Ulcerogenicity in Rattus norvegicus Sprague-Dawley (rat) stomach assessed as ulcer score at 50 mg/kg administered via intragastrically after 6 hr by hematoxylin and eosin staining; format: toxicity, organism-based; design: dose 50 mg/kg, route intragastric; details: in vivo, po
[2] = system: Rattus norvegicus; test: Anti-inflammatory activity in Rattus norvegicus Sprague-Dawley (rat) assessed as inhibition of carrageenan-induced paw edema at 10 mg/kg administered 1 hr prior to carrageenan challenge measured at 4 hr relative to diclofenac; format: functional
[3] = system: Rattus norvegicus; test: Anti-inflammatory activity in Rattus norvegicus Sprague-Dawley (rat) assessed as inhibition of carrageenan-induced paw edema at 10 mg/kg administered 1 hr prior to carrageenan challenge measured at 2 hr relative to control; format: functional
[4] = system: Rattus norvegicus; test: Anti-inflammatory activity in Rattus norvegicus Sprague-Dawley (rat) assessed as inhibition of carrageenan-induced paw edema at 10 mg/kg administered 1 hr prior to carrageenan challenge measured at 4 hr relative to control; format: functional
[5] = system: Rattus norvegicus; test: Anti-inflammatory activity in Rattus norvegicus Sprague-Dawley (rat) assessed as inhibition of carrageenan-induced paw edema at 10 mg/kg administered 1 hr prior to carrageenan challenge measured at 1 hr relative to control; format: functional
[6] = system: Rattus norvegicus; test: Ulcerogenicity in Rattus norvegicus Sprague-Dawley (rat) stomach assessed as appearance of cone shape gastric mucosa layer at 50 mg/kg administered via intragastrically after 6 hr by hematoxylin and eosin staining relative to untreated control; format: toxicity, organism-based; design: dose 50 mg/kg, route intragastric; details: in vivo, po
[7] = system: Rattus norvegicus; test: Ulcerogenicity in Rattus norvegicus Sprague-Dawley (rat) stomach assessed as decrease in gastric mucosa layer thickness at 50 mg/kg administered via intragastrically after 6 hr by hematoxylin and eosin staining relative to untreated control; format: toxicity, organism-based; design: dose 50 mg/kg, route intragastric; scale not given: the % may be the effect or the level left; details: in vivo, po

`Cc1cccc(C)c1Nc1ccc(=O)[nH]n1` gave a UI [1] of 1.8.
In the case of `O=C(O)c1ccccc1Oc1ccc(=O)[nH]n1`, the UI [1] is reported as 2.
Work on `O=c1ccc(Nc2ccccc2Br)n[nH]1` yielded a UI [1] of 4.2.
With `O=C(O)Cc1ccccc1Nc1c(Cl)cccc1Cl` [DICLOFENAC] the inhibition in vivo at 10 mg/kg [2] was 100%, the inhibition in vivo at 10 mg/kg [3] was 73.5% and the inhibition in vivo at 10 mg/kg [4] was 78.3%. For the same compound, the inhibition in vivo at 10 mg/kg [5] was 65.3%.
For `COc1ccc2c(c1)c(CC(=O)O)c(C)n2C(=O)c1ccc(Cl)cc1` [INDOMETHACIN], the UI [1] was 7.2, the Activity [6] was “Toxic” and the Activity [7] was 20%.
